Experimental data as given in patent publication US7265149B2, “Indolyl derivatives” (Hoffmann-La Roche Inc., priority 2004, dated 2007).

What was measured:
PPARγ = biological target: T1, PPARγ (Mus musculus, UniProt P37238); assay: PPARγ radioligand binding assay (scintillation proximity); conditions: GST-PPARγ-LBD fusion protein on SPA beads
T1 construct: PPARγ (aa 174 to 476); made in house; host or cells: E. coli BL21 (pLysS)
T1 sequence (P37238 174-475 isoform P37238-2): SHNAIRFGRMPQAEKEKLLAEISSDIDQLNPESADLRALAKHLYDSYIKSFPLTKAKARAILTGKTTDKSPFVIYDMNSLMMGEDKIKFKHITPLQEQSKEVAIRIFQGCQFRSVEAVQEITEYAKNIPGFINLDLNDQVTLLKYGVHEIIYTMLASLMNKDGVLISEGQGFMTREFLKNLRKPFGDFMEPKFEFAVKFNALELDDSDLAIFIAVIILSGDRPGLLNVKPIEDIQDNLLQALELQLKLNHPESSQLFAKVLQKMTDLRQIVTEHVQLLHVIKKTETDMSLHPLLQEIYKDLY
Description: (§1) Background information on the performed assays can be found in: Nichols J S et al. “Development of a scintillation proximity assay for peroxisome proliferator-activated receptor gamma ligand binding domain”, (1998) Anal. Biochem. 257: 112-119.
(§2) Full-length cDNA clones for humans PPARδ and PPARα and mouse PPARγ were obtained by RT-PCR from human adipose and mouse liver cRNA, respectively, cloned into plasmid vectors and verified by DNA sequencing. Bacterial and mammalian expression vectors were constructed to produce glutathione-s-transferase (GST) and Gal4 DNA binding domain proteins fused to the ligand binding domains (LBD) of PPARδ (aa 139 to 442), PPARγ (aa 174 to 476) and PPARα (aa 167 to 469). To accomplish this, the portions of the cloned sequences encoding the LBDs were amplified from the full-length clones by PCR and then subcloned into the plasmid vectors. Final clones were verified by DNA sequence analysis.
(§3) Induction, expression, and purification of GST-LBD fusion proteins were performed in E. coli strain BL21 (pLysS) cells by standard methods (Ref: Current Protocols in Molecular Biology, Wiley Press, edited by Ausubel et al.).
(§4) Radioligand Binding Assay
PPARγ receptor binding was assayed in TKE50 (50 mM Tris-HCl, pH 8, 50 mM KCl, 2 mM EDTA, 0.1 mg/ml fatty acid-free BSA and 10 mM DTT). For each 96 well reaction an 140 ng equivalent of GST-PPARγ-LBD fusion protein was bound to 10 μg SPA beads (PharmaciaAmersham) in a final volume of 50 ul by shaking. The resulting slurry was incubated for 1 h at RT and centrifuged for 2 min at 1300 g. The supernatant containing unbound protein was removed and the semidry pellet containig the recptor-coated beads was resolved in 50 μl of TKE. […] All binding assays were performed in 96 well plates and the amount of bound ligand measured on a Packard TopCount using OptiPlates (Packard). Nonspecific binding was determined in the presence of 10^−4 M unlabelled compound. […]

PPARδ = biological target: T2, PPARδ (Homo sapiens, UniProt Q03181); assay: PPARδ radioligand binding assay (scintillation proximity); conditions: GST-PPARδ-LBD fusion protein on SPA beads
T2 construct: PPARδ (aa 139 to 442); made in house; host or cells: E. coli BL21 (pLysS)
T2 sequence (Q03181 139-441 limits assumed): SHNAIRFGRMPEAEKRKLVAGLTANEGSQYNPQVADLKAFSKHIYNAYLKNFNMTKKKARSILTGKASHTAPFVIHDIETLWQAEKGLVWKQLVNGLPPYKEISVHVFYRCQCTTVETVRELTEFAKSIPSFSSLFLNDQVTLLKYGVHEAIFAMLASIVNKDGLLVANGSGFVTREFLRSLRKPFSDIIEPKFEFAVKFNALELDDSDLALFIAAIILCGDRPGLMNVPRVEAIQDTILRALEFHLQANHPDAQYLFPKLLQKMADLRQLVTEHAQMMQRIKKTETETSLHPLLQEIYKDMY
Description: as §1, §2, §3, §4
PPARδ receptor binding was assayed in HNM10 (50 mM Hepes, pH 7.4, 10 mM NaCl, 5 mM MgCl2, 0.15 mg/ml fatty acid-free BSA and 15 mM DTT). For each 96 well reaction a 500 ng equivalent of GST-PPARδ-LBD fusion protein and radioligand, e.g. 20000 dpm {2-methyl-4-[4-methyl-2-(4-trifluoromethyl-phenyl)-thiazol-5-yl-ditritiomethylsulfanyl]-phenoxy}-acetic acid, was bound to 10 μg SPA beads (PharmaciaAmersham) in a final volume of 50 μl by shaking. The resulting slurry was incubated for 1 h at RT and centrifuged for 2 min at 1300 g. […] Radioligand was added and the reaction incubated at RT for 1 h and scintillation proximity counting performed in the presence of test compounds was determined. All binding assays were performed in 96 well plates and the amount of bound ligand was measured on a Packard TopCount using OptiPlates (Packard). […]

PPARα = biological target: T3, PPARα (Homo sapiens, UniProt Q07869); assay: PPARα radioligand binding assay (scintillation proximity); conditions: GST-PPARα-LBD fusion protein on SPA beads
T3 construct: PPARα (aa 167 to 469); made in house; host or cells: E. coli BL21 (pLysS)
T3 sequence (Q07869 167-468 limits assumed): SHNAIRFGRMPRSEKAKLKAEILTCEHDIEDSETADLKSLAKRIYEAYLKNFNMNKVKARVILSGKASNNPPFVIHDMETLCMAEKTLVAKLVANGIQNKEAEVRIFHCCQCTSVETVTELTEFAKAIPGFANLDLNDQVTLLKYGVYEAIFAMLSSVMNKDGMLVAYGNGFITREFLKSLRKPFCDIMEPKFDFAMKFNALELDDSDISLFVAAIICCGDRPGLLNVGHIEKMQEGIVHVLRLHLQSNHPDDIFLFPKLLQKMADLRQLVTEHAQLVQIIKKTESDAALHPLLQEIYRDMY
Description: as §1
as §2, with “analysis. […]” for “analysis.”
PPARα receptor binding was assayed in TKE50 (50 mM Tris-HCl, pH 8, 50 mM KCl, 2 mM EDTA, 0.1 mg/ml fatty acid-free BSA and 10 mM DTT). […] All binding assays were performed in 96 well plates and the amount of bound ligand measured on a Packard TopCount using OptiPlates (Packard). Nonspecific binding was determined in the presence of 10^−4 M unlabelled compound. […]

| IC50 (PPARγ) [nM] | IC50 (PPARδ) [nM] | IC50 (PPARα) [nM] | Compound |
| --- | --- | --- | --- |
| ≥ 10000 | 140 | – | Cc1c(-c2ccc(Cl)cc2)nn(C)c1COc1ccc2ccn(CC(=O)O)c2c1 [Example 2, {6-[5-(4-Chloro-phenyl)-2,4-dimethyl-2H-pyrazol-3-ylmethoxy]-indol-1-yl}-acetic acid] |
| ≥ 10000 | 43 | 13 | Cn1nc(-c2ccc(OC(F)(F)F)cc2)cc1CCCOc1ccc2ccn(CC(=O)O)c2c1 [Example 20, (6-{3-[2-Methyl-5-(4-trifluoromethoxy-phenyl)-2H-pyrazol-3-yl]-propoxy}-indol-1-yl)-acetic acid] |
| ≥ 10000 | 4 | 2570 | Cn1nc(-c2ccc(C(F)(F)F)cc2)c(Br)c1COc1ccc2ccn(CC(=O)O)c2c1 [Example 8, {6-[4-Bromo-2-methyl-5-(4-trifluoromethyl-phenyl)-2H-pyrazol-3-ylmethoxy]-indol-1-yl}-acetic acid] |
